Reference: US8044042B2, “Thienotriazolodiazepine compound and medicinal use thereof” (Mitsubishi Tanabe Pharma Corporation, priority 2005, dated 2011)
Read-outs that look alike come from different tables or passages of the source.

Columns and labels:
[1] = tested on: CD28-dependent T cell growth; experiment: Mouse T cell proliferation stimulated with anti-CD28 antibody and PMA (tritiumthymidine uptake); format: cell-based; conditions: for IC50: T-cell, BALB/c mouse T cells, 10 ng/mL PMA and 250 ng/mL anti-CD28 antibody, tritiumthymidine uptake, read-out: CD28-dependent T cell growth suppressive action (IC50); for CD28-dependent T cell growth suppressive action (in words): mouse T cells stimulated with PMA and anti-CD28 antibody
Description: The spleen was aseptically isolated from 6-7-week-old male BALB/c mice (CHARLES RIVER LABORATORIES JAPAN, INC.), and splenocyte suspension was prepared using RPMI1640 medium (manufactured by Sigma-Aldrich Ltd.). After hemolysis by a hypotonic treatment using a mixed solution of 0.83% aqueous ammonium chloride and Tris-HCl buffer (pH 7.65) at 9:1, a T cell concentrated fraction was obtained using a T cell concentrated column (manufactured by R&D systems). A cell suspension prepared using RPMI1640 medium containing 10% fetal calf serum (FCS, manufactured by Sigma-Aldrich Ltd.) was added to a flat-bottomed 96 well microtest plate (manufactured by Becton, Dickinson and Company) at 5×10^5 cells/well. Furthermore, a test compound diluted with a medium to the final concentration of 1-10000 nmol/L, 10 ng/mL PMA (manufactured by Sigma-Aldrich Ltd.) and 250 ng/mL anti-CD28 antibody (manufactured by BD pharmingen) were added, and the mixture was cultured under the conditions of 37° C., 5% carbon dioxide, 95% air for 20 hr. After the completion of culture, tritiumthymidine (specific activity: […], manufactured by MP Biochemicals) was added at 18.5 kBq/well, and the mixture was further cultured for 4 hr. Then, the cells were recovered in a glass fiber filter using a cell harvester (manufactured by Molecular Devices Corp.), the radioactivity taken into the cells was measured using a plate scintillation counter (microbeta 1460, manufactured by PerkinElmer), based on which the mouse T cell growth induced by stimulation with PMA and anti-CD28 antibody was measured. To be specific, suppressing rate (%)=(1−(radioactivity (cpm) of well added with test compound)/(radioactivity (cpm) of well without addition of test compound))×100 was calculated from the average amount of tritiumthymidine uptake (cpm) of T cells in each well added with various concentrations of test compound. In addition, based on the dose response curve obtained by plotting the average tritiumthymidine uptake amount (cpm) or suppressing rate on the vertical axis and the concentration on the transverse axis, the concentration of the compound (IC50) suppressing the value to 50% of that of the control group was determined by nonlinear regression.

[2] = tested on: TYPE II Collagen-Induced Arthritis in DBA/1J Mouse; experiment: Type II collagen-induced arthritis in DBA/1J mouse; format: in vivo; conditions: 840 h
Description: Bovine Type II collagen (purchased from collagen technical workshop) (100-200 μg) was mixed with complete Freund's adjuvant (manufactured by Sigma-Aldrich Ltd.) containing killed tuberculosis H37Ra. Using the resulting emulsion, 6 to 7-week-old male DBA/1J mice (CHARLES RIVER LABORATORIES JAPAN, INC.) were subcutaneously immunized at the tail root twice at 3 week intervals, whereby arthritis was developed. A test compound was suspended or dissolved in 0.5% carboxymethylcellulose (manufactured by Sigma-Aldrich Ltd.), and repetitively administered orally at a dose of 0.1-30 mg/kg body weight using an oral gavage needle for 2 weeks from the day of booster. As to this model, the symptoms of arthritis of four limbs were evaluated based on the following judgment criteria using the scores of from 0 to 4. The arthritis score of each mouse was shown by the total of the scores of four limbs (maximum: 16 points).
As regards the arthritis score, each group (n=5-6) was evaluated using an average value and mean error, with a group administered only with a vehicle being control, and Mann-Whitney U test was used for statistical analysis, wherein p value of 0.05 or below was determined to be significant. In the following, the suppressive action of the compound of the present invention on mouse collagen induced arthritis is shown by the suppressing rate (%) (1−(average arthritis score of compound administration group)/(average arthritis score of control group)×100) calculated from the average arthritis score at 35 days after the primary immunization.

[3] = tested on: Lupus Nephritis in MRL/MpJ-lpr/lpr Mouse; experiment: Lupus nephritis in spontaneous systemic lupus erythematosus model MRL/MpJ-lpr/lpr mouse; format: in vivo; conditions: for urine protein score (mean ± SE): 4 weeks after administration, medium group 2.8 ± 0.2, P <0.05
Description: The compound of the present invention or a pharmaceutically acceptable salt thereof was suspended or dissolved in 0.5% carboxymethylcellulose, and repetitively administered orally to male MRL/MpJ-lpr/lpr mice at 16 weeks after birth (CHARLES RIVER LABORATORIES JAPAN, INC.), that had developed lupus nephritis, at a dose of 1 and 3 mg/kg body weight for 4 weeks using an oral gavage needle. During the dosing period, urine-protein level was scored once a week using Ames urine test paper (Albustix (registered trademark), Bayer, Ltd.•Sankyo Corp.). As regards the urine protein levels, each group (n=10) was evaluated using an average value and mean error, with a group administered only with a vehicle being control, and Dunnett's test was used for statistical analysis, wherein p value of 0.05 or below was determined to be significant.

[4] = tested on: Experimental Autoimmune Encephalomyelitis in SJL/J Mouse; experiment: Experimental autoimmune encephalomyelitis in SJL/J mouse; format: in vivo; conditions: 3 weeks from immunization, average EAE score at 14 days after immunization, P <0.05
Description: The 139th-151st peptides (50 μg) of rat-derived proteolipid protein (manufactured by Bachem) was mixed with complete Freund's adjuvant containing killed tuberculosis H37Ra. Using the resulting emulsion, 10-week-old female SJL/J mice (CHARLES RIVER LABORATORIES JAPAN, INC.) were subcutaneously immunized on the back, whereby experimental autoimmune encephalomyelitis (EAE) was developed. The compound of the present invention or a pharmaceutically acceptable salt thereof was suspended or dissolved in 0.5% carboxymethylcellulose (manufactured by Sigma-Aldrich Ltd.), and repetitively administered orally at a dose of 3-30 mg/kg body weight using an oral gavage needle for 3 weeks from the day of immunization. As to this model, the symptoms of EAE were evaluated based on the following judgment criteria using the scores of from 0 to 5.
As regards the EAE score, each group (n=10) was evaluated using an average value and mean error, with a group administered only with a vehicle being control, and Mann-Whitney U test was used for statistical analysis, wherein p value of 0.05 or below was determined to be significant. In the following, the suppressive action of the compound of the present invention on EAE is shown by the suppressing rate (%) calculated from the average EAE score at 14 days after the immunization. […] From the results, the compound is considered effective for encephalomyelitis, multiple sclerosis and the like.

[5] = tested on: Biphasic Auricular Edema in Egg Albumin-Induced Mouse; experiment: Egg albumin-induced mouse biphasic auricular edema; format: in vivo; conditions: for suppressing rate (%) of auricular edema: 24 hr later, P <0.05; for suppressive action on edema (in words): 24 hr after induction with egg albumin
Description: Using saline (0.5 ml) containing egg albumin (10 μg, manufactured by Sigma-Aldrich Ltd.) and 1 mg of aluminum hydroxide gel, 6 to 7-week-old male BALB/c mice (CHARLES RIVER LABORATORIES JAPAN, INC.) were intraperitoneally immunized. Two weeks later, egg albumin (1.25 μg) was intradermally injected into the auricle of the mice for challenge, whereby biphasic auricular edema was induced 1 hr and 24 hr after the challenge. The compound of the present invention or a pharmaceutically acceptable salt thereof was suspended or dissolved in 0.5% carboxymethylcellulose, and repetitively administered orally at a dose of 0.01-30 mg/kg body weight for 3 days, from 2 days before the antigen challenge to the day of challenge, using an oral gavage needle. As for this model, the thickness of the auricle of the mouse was measured using a dial gauge (manufactured by Ozaki MFG. Co. Ltd.) and used as an index of auricular edema. As regards the thickness of the auricle, each group (n=8) was evaluated using an average value and mean error, with a group administered only with a vehicle being control, and t-test was used for statistical analysis, wherein p value of 0.05 or below was determined to be significant.

[6] = tested on: Mouse Graft-Versus-Host Reaction (GvHR); experiment: Mouse graft-versus-host reaction (GvHR); format: in vivo; conditions: P <0.05 vs vehicle
Description: Cyclophosphamide (manufactured by Shionogi & Co., Ltd.) is administered to male BDF1 recipient mouse (8-week-old, CHARLES RIVER LABORATORIES JAPAN, INC.) at a dose of 300 mg/kg from the tail vein as a pretreatment at 24 hr prior to injection of spleen cells. The spleen was aseptically isolated from male C57BL/6 donor mouse (8-week-old, CHARLES RIVER LABORATORIES JAPAN, INC.), minced in RPMI1640 medium (manufactured by Sigma-Aldrich Ltd.), and passed through a stainless mesh to give a splenocyte single cell suspension. After removal of red blood cells by a hypotonic treatment using a mixed solution of 0.83% aqueous ammonium chloride and Tris-HCl buffer (pH 7.65) at 9:1, splenocytes were washed and suspended in physiological saline to give a splenocyte suspension. The prepared cells were injected at 1×10^8 cells/mouse into the tail vein to induce acute GvHR. The compound of the present invention or a pharmaceutically acceptable salt thereof was suspended or dissolved in 0.5% carboxymethylcellulose, and repetitively administered orally at a dose of 3-30 mg/kg body weight for 28 days from the day of splenocyte injection, and the influence on the survival time was evaluated. After induction of acute GvHR, the survival of each individual was determined every day, and the day of confirmed death was taken as the survival time of each individual. As for the survival time, log-rank test analysis was performed using the group administered with vehicle alone as a control, and the multiplicity was adjusted by the Holm's method, wherein p value of 0.05 or below was determined to be significant.

[7] = po, read-out: suppressing rate (%) of arthritis score
[8] = 3 mg/kg oral, 2 weeks from booster, average arthritis score at 35 days after primary immunization, P <0.05, read-out: suppressing rate (%) of arthritis score
[9] = 3 mg/kg oral for 28 days from splenocyte injection

Compound | IC50 [1] [nM] | CD28-dependent T cell growth suppressive action (in words) [1] | inhibition in vivo at 3 mg/kg [2, 7] [%] | urine protein score (mean ± SE) ([3]; 1 mg/kg oral) | urine protein score (mean ± SE) ([3]; 3 mg/kg oral) | effect on urine protein score (in words) ([3]; at not less than 1 mg/kg, oral for 4 weeks, compared to the control group) | inhibition in vivo at 3 mg/kg [2, 8] [%] | suppressing rate (%) of EAE score ([4]; 30 mg/kg oral) [%] | suppressing rate (%) of auricular edema ([5]; 3 mg/kg oral for 3 days) [%] | suppressive action on edema (in words) ([5]; 3 mg/kg) | median survival time ([6]; 10 mg/kg oral for 28 days from splenocyte injection) [days] | inhibition in vivo at 10 mg/kg [2, 7] [%] | suppressing rate (%) of auricular edema ([5]; 10 mg/kg oral for 3 days) [%] | suppressive action on edema (in words) ([5]; 10 mg/kg) | median survival time ([6]; 30 mg/kg oral for 28 days from splenocyte injection) [days] | suppressing rate (%) of EAE score ([4]; 3 mg/kg oral) [%] | median survival time [6, 9] [days] | suppressing rate (%) of EAE score ([4]; 10 mg/kg oral) [%]
COC(=O)C[C@@H]1N=C(c2ccc(Cl)cc2)c2c(sc(C)c2C)-n2c(C)nnc21 [Example 1, Methyl (S)-{4-(4-chlorophenyl)-2,3,9-trimethyl-6H-thieno[3,2-f][1,2,4]triazolo[4,3-a][1,4]diazepin-6-yl}acetate] | 38 | have a CD28-dependent T cell growth suppressive action | 66.1 | 1.8 ± 0.3 | 1.6 ± 0.2 | significantly decreased the urine protein score | – | – | – | – | – | – | – | – | – | – | – | –
CCOC(=O)C[C@@H]1N=C(c2ccc(NCc3ccc(F)cc3)cc2)c2c(sc(C)c2C)-n2c(C)nnc21 [Example 163, Ethyl (S)-(4-{4-[(4-fluorophenyl)methylamino]phenyl}-2,3,9-trimethyl-6H-thieno[3,2-f][1,2,4]triazolo[4,3-a][1,4]diazepin-6-yl)acetate] | 70 | have a CD28-dependent T cell growth suppressive action | – | – | – | – | 57.4 | 60 | 44.5 | significant suppressive action on edema | 19 | – | – | – | – | – | – | –
Cc1sc2c(c1C)C(c1ccc(NCc3ccccc3)cc1)=NCc1nnc(C)n1-2 [Example 335, 4-(4-benzylaminophenyl)-2,3,9-trimethyl-6H-thieno[3,2-f][1,2,4]triazolo[4,3-a][1,4]diazepine] | 190 | have a CD28-dependent T cell growth suppressive action | – | – | – | – | – | 53 | – | – | – | 65.5 | 45.1 | significant suppressive action on edema | 36.5 | – | – | –
COC(=O)C[C@@H]1N=C(c2ccc(NCc3ccccc3)cc2)c2c(sc(C)c2C)-n2c(C)nnc21 [Example 167, Methyl (S)-{4-(4-benzylaminophenyl)-2,3,9-trimethyl-6H-thieno[3,2-f][1,2,4]triazolo[4,3-a][1,4]diazepin-6-yl}acetate] | 29 | have a CD28-dependent T cell growth suppressive action | – | – | – | – | 61.4 | – | 30.1 | significant suppressive action on edema | – | – | – | – | – | 62 | 56 | –
COC(=O)C[C@@H]1N=C(c2ccc(-c3cccc(C#N)c3)cc2)c2c(sc(C)c2C)-n2c(C)nnc21 [Example 8, Methyl (S)-{4-(3′-cyanobiphenyl-4-yl)-2,3,9-trimethyl-6H-thieno[3,2-f][1,2,4]triazolo[4,3-a][1,4]diazepin-6-yl}acetate] | 26 | have a CD28-dependent T cell growth suppressive action | – | – | – | – | 50 | – | 40.5 | significant suppressive action on edema | – | – | – | – | – | – | 56 | 98
